# Active and inactive are the calls of the source.
# Experiments:
# [1] = molecular target: Luciferin 4-monooxygenase (Photinus pyralis, UniProt P08659); experiment: inhibition of purified Photinus pyralis luciferase – biochemical, luminescence, dose response (AID 1891)
# [2] = Luminescence Cell-Based Dose Confirmation HTS to Identify Inhibitors of Platelet Dense Granule Release. [Related pubchem assays: 1663 (Primary HTS), 1678 (Summary of Project)]; assay type: functional
# [3] = microbe, parasite or virus in culture; assay type: functional; settings: Mycobacterium tuberculosis
# Fatty acid synthase [4] = molecular target: T1, Fatty acid synthase (Homo sapiens, UniProt P49327); experiment: inhibition of human FAS-TE enzyme activity – biochemical, endpoint fluorescence intensity, uHTS hits, dose response (AID 624327); assay type: functional;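 also: fluorescence from hydrolysis of an O-methyl fluorescein acyl ester substrate by the enzyme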
# T1 sequence (P49327 whole entry): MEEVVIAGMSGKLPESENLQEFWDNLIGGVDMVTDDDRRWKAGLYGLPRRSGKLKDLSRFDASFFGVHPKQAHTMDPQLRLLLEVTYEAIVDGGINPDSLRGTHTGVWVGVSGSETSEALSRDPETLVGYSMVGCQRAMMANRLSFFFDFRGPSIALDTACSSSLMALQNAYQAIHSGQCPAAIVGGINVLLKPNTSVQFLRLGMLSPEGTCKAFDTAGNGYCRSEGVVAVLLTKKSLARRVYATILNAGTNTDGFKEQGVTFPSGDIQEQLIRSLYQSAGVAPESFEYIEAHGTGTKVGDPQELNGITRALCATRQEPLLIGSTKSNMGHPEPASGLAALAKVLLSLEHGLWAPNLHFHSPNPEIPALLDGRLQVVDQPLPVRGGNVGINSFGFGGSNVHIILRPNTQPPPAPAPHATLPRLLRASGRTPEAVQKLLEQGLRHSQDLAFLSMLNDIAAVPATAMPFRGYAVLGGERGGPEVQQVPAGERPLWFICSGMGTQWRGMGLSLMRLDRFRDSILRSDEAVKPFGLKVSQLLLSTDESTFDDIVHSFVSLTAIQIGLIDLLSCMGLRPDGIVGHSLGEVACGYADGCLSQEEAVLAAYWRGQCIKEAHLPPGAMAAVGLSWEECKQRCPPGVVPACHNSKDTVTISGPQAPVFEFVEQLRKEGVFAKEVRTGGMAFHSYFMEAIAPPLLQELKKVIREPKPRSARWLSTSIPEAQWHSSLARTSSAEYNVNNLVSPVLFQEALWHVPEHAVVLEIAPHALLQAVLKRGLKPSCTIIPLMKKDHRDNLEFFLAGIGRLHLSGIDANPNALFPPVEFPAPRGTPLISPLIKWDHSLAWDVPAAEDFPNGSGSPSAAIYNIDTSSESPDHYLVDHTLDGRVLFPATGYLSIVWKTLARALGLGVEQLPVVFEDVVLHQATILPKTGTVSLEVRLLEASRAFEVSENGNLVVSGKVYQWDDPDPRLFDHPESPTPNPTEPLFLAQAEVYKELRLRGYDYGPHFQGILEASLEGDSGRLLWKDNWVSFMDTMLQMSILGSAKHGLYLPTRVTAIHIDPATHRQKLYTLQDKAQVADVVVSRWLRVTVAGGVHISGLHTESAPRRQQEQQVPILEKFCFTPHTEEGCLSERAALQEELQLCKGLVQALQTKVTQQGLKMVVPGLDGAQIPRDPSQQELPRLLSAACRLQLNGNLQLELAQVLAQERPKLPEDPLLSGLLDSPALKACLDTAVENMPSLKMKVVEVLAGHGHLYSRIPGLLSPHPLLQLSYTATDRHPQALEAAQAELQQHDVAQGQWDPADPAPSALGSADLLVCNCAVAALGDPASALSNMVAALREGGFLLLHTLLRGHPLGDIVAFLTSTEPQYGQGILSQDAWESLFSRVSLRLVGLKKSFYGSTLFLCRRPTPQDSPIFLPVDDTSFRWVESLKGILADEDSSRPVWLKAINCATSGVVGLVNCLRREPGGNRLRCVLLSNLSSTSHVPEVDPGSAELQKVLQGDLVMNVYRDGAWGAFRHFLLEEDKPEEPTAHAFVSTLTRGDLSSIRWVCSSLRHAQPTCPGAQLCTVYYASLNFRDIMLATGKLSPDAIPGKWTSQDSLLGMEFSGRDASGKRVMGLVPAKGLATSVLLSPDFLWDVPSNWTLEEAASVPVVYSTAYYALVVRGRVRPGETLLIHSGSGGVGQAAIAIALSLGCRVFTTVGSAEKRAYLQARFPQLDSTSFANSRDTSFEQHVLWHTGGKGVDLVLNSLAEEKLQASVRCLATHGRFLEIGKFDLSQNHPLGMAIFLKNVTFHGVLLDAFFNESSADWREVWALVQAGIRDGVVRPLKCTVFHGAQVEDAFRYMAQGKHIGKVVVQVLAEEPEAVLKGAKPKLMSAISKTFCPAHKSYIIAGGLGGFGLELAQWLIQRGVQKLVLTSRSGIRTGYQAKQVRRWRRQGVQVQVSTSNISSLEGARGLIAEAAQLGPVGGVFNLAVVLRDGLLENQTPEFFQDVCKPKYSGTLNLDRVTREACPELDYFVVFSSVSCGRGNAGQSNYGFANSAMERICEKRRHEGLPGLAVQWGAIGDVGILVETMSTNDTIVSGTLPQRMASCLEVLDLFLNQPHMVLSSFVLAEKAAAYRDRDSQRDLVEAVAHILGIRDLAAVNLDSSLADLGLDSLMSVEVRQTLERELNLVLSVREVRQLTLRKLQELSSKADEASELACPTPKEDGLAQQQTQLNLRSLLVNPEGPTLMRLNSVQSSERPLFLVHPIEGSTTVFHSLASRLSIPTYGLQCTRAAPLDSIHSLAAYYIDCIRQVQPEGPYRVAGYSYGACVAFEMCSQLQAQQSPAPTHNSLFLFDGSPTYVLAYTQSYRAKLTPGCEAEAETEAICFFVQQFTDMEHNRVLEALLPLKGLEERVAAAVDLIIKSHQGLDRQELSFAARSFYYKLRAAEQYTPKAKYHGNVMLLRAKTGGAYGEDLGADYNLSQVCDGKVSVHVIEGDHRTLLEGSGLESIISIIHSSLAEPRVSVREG
# Fatty acid synthase [5] = molecular target: T1, Fatty acid synthase; experiment: inhibition of human FAS-TE enzyme activity – biochemical, kinetic fluorescence intensity, dose response (AID 624326); assay type: functional;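 also: rate of fluorescence rise from hydrolysis of a fluorogenic O-methyl fluorescein ester substrate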
# Genome polyprotein = Genome polyprotein (dengue virus type 2, UniProt P29990); experiment: flavivirus cap methylation enzyme inhibition – biochemical, confirmation dose response, primary screen (AID 588689); assay type: functional
# Chain of Genome polyprotein (P29990 2492-3391 limits assumed): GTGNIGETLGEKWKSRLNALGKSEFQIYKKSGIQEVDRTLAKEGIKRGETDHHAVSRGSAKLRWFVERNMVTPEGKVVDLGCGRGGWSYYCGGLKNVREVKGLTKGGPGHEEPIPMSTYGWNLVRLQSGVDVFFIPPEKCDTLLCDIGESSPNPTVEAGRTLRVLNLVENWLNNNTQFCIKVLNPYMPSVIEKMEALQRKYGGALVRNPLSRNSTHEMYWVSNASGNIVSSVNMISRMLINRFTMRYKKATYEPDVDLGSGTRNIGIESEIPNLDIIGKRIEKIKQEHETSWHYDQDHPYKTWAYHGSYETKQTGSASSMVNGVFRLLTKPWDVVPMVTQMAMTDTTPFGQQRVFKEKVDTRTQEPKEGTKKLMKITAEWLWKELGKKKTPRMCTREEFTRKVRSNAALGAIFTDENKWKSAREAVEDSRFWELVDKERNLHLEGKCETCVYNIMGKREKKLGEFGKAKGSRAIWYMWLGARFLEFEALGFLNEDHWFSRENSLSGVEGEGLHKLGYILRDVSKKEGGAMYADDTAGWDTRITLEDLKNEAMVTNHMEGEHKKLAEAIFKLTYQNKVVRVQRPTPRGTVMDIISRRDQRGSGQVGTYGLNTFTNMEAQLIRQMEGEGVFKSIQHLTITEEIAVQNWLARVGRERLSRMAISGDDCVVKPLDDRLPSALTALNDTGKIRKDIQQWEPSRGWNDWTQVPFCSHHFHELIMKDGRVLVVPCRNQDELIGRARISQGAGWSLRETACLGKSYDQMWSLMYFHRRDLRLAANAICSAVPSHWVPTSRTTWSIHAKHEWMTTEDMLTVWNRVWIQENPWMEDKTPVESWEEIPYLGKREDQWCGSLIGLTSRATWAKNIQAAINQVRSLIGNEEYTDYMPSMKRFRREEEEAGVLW
# [6] = molecular target: T2, Replicative DNA helicase DnaB (Mycobacterium tuberculosis, UniProt P9WMR3); experiment: DnaB intein splicing inhibitors, dose response, biochemical, cell-free fluorescence (AID 449749); assay type: functional
# T2 sequence (P9WMR3 whole entry): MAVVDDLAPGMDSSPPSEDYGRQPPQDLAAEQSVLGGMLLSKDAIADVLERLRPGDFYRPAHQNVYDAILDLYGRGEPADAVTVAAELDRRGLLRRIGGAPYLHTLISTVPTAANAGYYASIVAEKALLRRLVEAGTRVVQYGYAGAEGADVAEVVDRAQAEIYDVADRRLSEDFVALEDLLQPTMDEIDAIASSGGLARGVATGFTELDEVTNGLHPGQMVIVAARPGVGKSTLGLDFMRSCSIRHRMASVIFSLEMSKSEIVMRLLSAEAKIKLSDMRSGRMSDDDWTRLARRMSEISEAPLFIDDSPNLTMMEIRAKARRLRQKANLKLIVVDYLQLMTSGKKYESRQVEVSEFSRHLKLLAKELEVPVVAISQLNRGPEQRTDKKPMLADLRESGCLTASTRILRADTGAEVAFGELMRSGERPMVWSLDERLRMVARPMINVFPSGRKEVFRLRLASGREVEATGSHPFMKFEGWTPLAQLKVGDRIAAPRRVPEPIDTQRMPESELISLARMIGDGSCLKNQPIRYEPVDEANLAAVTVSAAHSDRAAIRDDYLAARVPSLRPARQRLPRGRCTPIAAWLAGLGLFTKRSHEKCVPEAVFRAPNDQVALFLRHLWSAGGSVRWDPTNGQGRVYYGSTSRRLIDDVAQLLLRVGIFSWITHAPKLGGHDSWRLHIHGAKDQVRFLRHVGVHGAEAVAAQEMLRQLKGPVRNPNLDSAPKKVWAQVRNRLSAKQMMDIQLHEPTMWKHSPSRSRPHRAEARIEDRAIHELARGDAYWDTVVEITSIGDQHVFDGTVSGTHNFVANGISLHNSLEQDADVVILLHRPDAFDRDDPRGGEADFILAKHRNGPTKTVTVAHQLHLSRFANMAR
# Protein RecA = molecular target: T3, Protein RecA (Mycobacterium tuberculosis, UniProt P9WHJ3); experiment: Fluorescence Cell-Free Homogeneous Dose Retest to Identify Inhibitors of RecA-Intein Splicing Activity. [Related pubchem assays (depositor defined):AID2097, AID2223, AID489010, AID492950]; assay type: functional
# T3 sequence (P9WHJ3 whole entry): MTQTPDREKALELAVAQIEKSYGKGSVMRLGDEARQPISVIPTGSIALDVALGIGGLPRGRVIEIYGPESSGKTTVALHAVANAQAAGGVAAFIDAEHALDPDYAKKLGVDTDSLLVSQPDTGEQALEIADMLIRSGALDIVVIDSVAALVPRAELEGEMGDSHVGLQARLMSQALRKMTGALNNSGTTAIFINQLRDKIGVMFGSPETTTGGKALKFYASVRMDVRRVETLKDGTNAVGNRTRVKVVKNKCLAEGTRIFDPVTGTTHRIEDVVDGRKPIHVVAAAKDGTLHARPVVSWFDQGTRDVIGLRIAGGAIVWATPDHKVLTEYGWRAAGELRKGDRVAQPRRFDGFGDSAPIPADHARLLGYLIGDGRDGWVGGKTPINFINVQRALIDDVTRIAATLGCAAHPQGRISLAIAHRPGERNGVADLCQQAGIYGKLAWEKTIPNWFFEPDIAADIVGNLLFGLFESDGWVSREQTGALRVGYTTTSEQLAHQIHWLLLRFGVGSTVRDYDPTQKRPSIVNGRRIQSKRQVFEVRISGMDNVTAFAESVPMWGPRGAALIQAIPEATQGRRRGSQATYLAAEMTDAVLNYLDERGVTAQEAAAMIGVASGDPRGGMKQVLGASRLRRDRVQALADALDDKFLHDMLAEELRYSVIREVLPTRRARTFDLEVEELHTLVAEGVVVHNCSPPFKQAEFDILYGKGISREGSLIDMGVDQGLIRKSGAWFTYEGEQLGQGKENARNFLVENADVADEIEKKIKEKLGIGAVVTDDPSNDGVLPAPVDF
# cells = assay type: functional
# [7] = non-specific 3'UTR reporter inhibition in Clone20-Shn3RL – cell-based, Renilla luciferase, cherry-picked, counter-screen for Shn3 inhibitor project, dose response (AID 624133); assay type: functional
# [8] = reduction of Shn3 3'UTR-driven luciferase in osteoblasts – cell-based, Clone20 osteoblasts, firefly luciferase, cherry-picked, dose response (AID 624132); assay type: functional;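 also: firefly luciferase luminescence from reporter carrying the Shn3 3'UTR in osteoblasts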
# [9] = loss of viability in HepG2 cells – cell-based, CellTiter-Glo, cherry-picked, cytotoxicity control for Shn3 inhibitor project, dose response (AID 624134); assay type: functional
# [10] = molecular target: T4, Calpain-2 catalytic subunit (Sus scrofa, UniProt P43367); experiment: m-calpain protease blockers, concentration series – biochemical, fluorogenic peptide substrate, dose response (AID 1420); assay type: functional
# T4 sequence (P43367 whole entry): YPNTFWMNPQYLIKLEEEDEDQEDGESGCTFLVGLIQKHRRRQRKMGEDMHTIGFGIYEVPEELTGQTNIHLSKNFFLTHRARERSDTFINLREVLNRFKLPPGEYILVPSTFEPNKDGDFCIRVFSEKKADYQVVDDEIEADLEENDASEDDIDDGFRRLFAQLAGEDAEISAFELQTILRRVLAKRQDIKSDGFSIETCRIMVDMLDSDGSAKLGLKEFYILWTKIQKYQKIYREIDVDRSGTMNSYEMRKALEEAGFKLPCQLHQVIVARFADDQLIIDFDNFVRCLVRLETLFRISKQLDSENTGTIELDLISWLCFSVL
# [11] = NIH3T3 cell viability loss – ATP luminescence, mouse fibroblasts, counter-screen, dose response (AID 2010); assay type: functional, cell-based;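 also: cells exposed to compound for about 90 hours before reading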
# [12] = Trypanosoma cruzi growth suppression in host cells – NIH3T3 host cells, beta-gal luminescence, confirmation (AID 2044); assay type: functional, cell-based;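 also: intracellular parasites grown in NIH/3T3 mouse fibroblasts as host cells; luminescent beta-galactosidase reporter signal from transgenic T. cruzi replicating inside host cells; inhibitors lower the luminescence signal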
# [13] = test system: Streptococcus sp. 'group A'; experiment: Streptococcus pyogenes SK(-)GAS viability under kanamycin – luminescence, BacTiterGlo, confirmation, counter-screen for streptokinase expression inhibitor project, dose response (AID 1900); assay type: functional, organism-based
# Streptokinase A = molecular target: T5, Streptokinase A (Streptococcus pyogenes serotype M1, UniProt P10520); experiment: viability-normalized secreted streptokinase activity reduction – plasminogen activation absorbance, OD405, dose response (AID 1914); assay type: functional, Streptococcus pyogenes M1 GAS;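 also: secreted streptokinase activity via plasminogen activation per viability signal from cell pellet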
# T5 sequence (P10520 whole entry): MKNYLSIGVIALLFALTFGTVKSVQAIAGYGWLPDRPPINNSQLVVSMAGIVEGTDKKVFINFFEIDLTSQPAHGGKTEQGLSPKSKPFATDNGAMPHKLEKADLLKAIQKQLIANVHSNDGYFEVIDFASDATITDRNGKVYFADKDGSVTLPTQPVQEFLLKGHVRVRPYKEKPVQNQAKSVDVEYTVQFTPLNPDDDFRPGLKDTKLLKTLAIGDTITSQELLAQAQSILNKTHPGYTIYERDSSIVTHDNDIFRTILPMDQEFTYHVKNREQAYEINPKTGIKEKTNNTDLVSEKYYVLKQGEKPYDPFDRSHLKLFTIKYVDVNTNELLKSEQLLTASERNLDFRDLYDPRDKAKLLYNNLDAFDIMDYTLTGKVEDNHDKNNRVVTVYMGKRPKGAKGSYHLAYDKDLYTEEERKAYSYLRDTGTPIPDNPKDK
# Streptococcus = experiment: GAS UMAA2166 growth inhibition – luminescence, BacTiterGlo, counter-screen for streptokinase expression inhibitor project, dose response (AID 1915); assay type: functional, organism-based;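 also: potency for reduction of bacterial viability or growth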
# Chain of Luciferin 4-monooxygenase (P08659 whole entry): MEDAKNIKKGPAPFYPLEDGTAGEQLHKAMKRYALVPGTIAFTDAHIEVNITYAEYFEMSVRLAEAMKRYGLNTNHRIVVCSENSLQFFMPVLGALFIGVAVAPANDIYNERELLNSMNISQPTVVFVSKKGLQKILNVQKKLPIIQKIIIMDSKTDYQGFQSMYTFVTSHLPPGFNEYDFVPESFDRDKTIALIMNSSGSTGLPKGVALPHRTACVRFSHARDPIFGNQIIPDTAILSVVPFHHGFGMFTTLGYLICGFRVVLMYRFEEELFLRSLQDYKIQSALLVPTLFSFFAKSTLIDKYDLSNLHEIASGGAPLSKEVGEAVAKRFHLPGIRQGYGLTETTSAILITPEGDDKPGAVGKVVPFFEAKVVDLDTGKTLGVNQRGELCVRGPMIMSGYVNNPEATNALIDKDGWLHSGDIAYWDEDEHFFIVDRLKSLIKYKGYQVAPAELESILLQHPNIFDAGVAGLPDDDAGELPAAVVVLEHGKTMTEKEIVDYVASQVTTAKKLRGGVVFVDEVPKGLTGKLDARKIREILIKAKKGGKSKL
compound,measurement,setting,value
O=C(NC1CCCCC1)C12CC3CC(CC(Cl)(C3)C1)C2,EC50,[1],> 112 µM (not active)
same,EC50,[2],> 112 µM (not active)
CCCCn1c(-c2ccc(C(C)(C)C)cc2)nc2cc3nc(O)c(C(C)C)nc3cc21,CC50,[3],32.7 µM (active)
Cc1nc2ccc([N+](=O)[O-])cc2c(=O)n1Cc1ccc(F)cc1,IC50,Fatty acid synthase [4],3.27 µM (active)
same,IC50,Fatty acid synthase [5],4.49 µM (active)
O=C(O)/C=C/C(=O)Nc1ccc(C2(c3ccc(NC(=O)/C=C/C(=O)O)cc3)c3ccccc3-c3ccccc32)cc1,IC50,Genome polyprotein,18.1 µM (active)
same,AC50,[6],13.3 µM (active)
same,EC50,Protein RecA,2.88 µM (active)
Cc1cc(C)cc(OC(=O)CCN2C(=O)c3ccccc3C2=O)c1,IC50,cells,> 50 µM (active)
Cc1ccc(C(C2C(=O)CC(C)(C)CC2=O)C2C(=O)CC(C)(C)CC2=O)s1,IC50,Genome polyprotein,46.4 µM (active)
O[C@@H]1CN(Cc2ccc(-n3cccn3)cc2)CC[C@H]1N1CCN(c2ccccc2F)CC1,AC50,[7],2.39 µM (active)
same,AC50,[8],2.13 µM (active)
same,AC50,[9],68 µM (active)
Cc1ccc(SCC(=O)OC(C)C(=O)NCc2ccccc2)cc1 (stereo unspecified),EC50,[1],> 112 µM (not active)
same,EC50,[2],> 112 µM (not active)
O=C(NCc1ccccc1Cl)C1CCCN(c2nc3ccsc3c(=O)s2)C1 (stereo unspecified),IC50,[10],15.9 µM (not active)
Cc1ccc(-c2nc3c(c(=O)[nH]c(=O)n3CC(C)C)n2CC(C)C)cc1[N+](=O)[O-],IC50,[10],16.1 µM (not active)
same,EC50,[11],> 30 µM (not active)
same,EC50,[12],1.41 µM (active)
O=C(CSc1nc(Nc2ccccc2)nc(N2CCOCC2)n1)Nc1cc(Cl)ccc1O,CC50,[3],17 µM (active)
same,EC50,[13],6.55 µM (active)
same,EC50,Streptokinase A,30.7 µM (active)
same,EC50,Streptococcus,18.5 µM (active)
O=C(COc1ncnc2cc([N+](=O)[O-])ccc12)N(CCc1ccccc1)Cc1ccccc1,IC50,Fatty acid synthase [4],5.94 µM (active)
same,IC50,Fatty acid synthase [5],22.2 µM (inactive)
CCN(CC(O)Cn1c2ccccc2c2ccccc21)S(=O)(=O)c1ccc(F)cc1 (stereo unspecified),IC50,[10],6.55 µM (not active)
